Experimental data reported in patent publication US11129807B2, “Methods of treating schizophrenia” (Sunovion Pharmaceuticals Inc., priority 2017, dated 2021).

Key:
[1] = tested on: PCP-Induced Hyperactivity Responses in Mice; experiment: PCP-induced hyperactivity (open field) in mice;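 note: plus means significant inhibition of PCP hyperactivity at P below 0.05 and minus means none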; type: in vivo; conditions: male C57Bl/6J mice, vs. vehicle + PCP
Method: (§1) Anti-psychotic like activity of the compounds was evaluated in mice using the PCP hyperactivity and Pre-Pulse Inhibition (PPI) models of schizophrenia.
(§2) Methods: Animals: Male C57Bl/6J mice from Jackson Laboratories (Bar Harbor, Me.) were used. Upon receipt, mice were assigned unique identification numbers (tail marked) and were group housed with 4 mice per cage in OptiMICE ventilated cages. All animals remained housed in groups of four during the remainder of the study. All mice were acclimated to the colony room for at least two weeks prior to testing. During the period of acclimation, mice were examined on a regular basis, handled, and weighed to assure adequate health and suitability. Animals were maintained on a 12/12 light/dark cycle. The room temperature was maintained between 20 and 23° C. with a relative humidity maintained between 30% and 70%. Chow and water were provided ad libitum for the duration of the study. In each test, animals were randomly assigned across treatment groups.
The analysis was configured to divide the open field into a center and periphery zone. Distance traveled was measured from horizontal beam breaks as the mouse moved whereas rearing activity was measured from vertical beam breaks.
Mice were injected with vehicle, test compound, or clozapine (1 mg/kg; i.p) and placed in the OF chambers for 30 min measurement of baseline activity. Mice were then injected with either water or PCP (5 mg/kg; i.p) and placed back in the OF chambers for a 60-minute session. At the end of each OF test session the OF chambers were thoroughly cleaned.

[2] = tested on: Pre-pulse Inhibition (PPI) in Mice; experiment: Pre-pulse inhibition (PPI) of startle in mice;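 note: plus grades count prepulse intensities with significant PPI increase at P below 0.05 and minus means no change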; type: in vivo; conditions: 30 min prior to PPI test, male C57Bl/6J mice, vs. vehicle
Method: as §1, §2
Prepulse Inhibition of Startle: The acoustic startle is an unconditioned reflex response to an external auditory stimulus. Prepulse inhibition of startle (PPI) refers to the reduction in the startle response caused by the presentation of a low-intensity auditory stimulus prior to the startle stimulus. The PPI paradigm is used for the study of schizophrenia and antipsychotic action due to the similarities between the results from human and rodent studies. […] Various psychotomimetic drugs such as PCP can disrupt PPI. In mice, antipsychotic drugs such as clozapine can reverse the disruption of PPI induced by PCP.
Mice were placed in the PPI chambers (Med Associates) for a 5 min session of white noise (70 dB) habituation. After the habituation period the test session was initiated. The session started with a habituation block of 6 presentations of the startle stimulus alone, followed by 10 PPI blocks, each of which consisted of 6 different types of trials. Trial types were: ‘null’ (no stimuli), ‘startle’ (120 dB), ‘startle plus prepulse’ (4, 8 and 12 dB over background noise, i.e., 74, 78 or 82 dB) and ‘prepulse’ (82 dB). Trial types were presented in a random order within each block. Each trial started with a 50 ms stimulus-free period during which baseline movements were recorded. This was followed by a subsequent 20 ms period during which the prepulse stimulus was presented and responses to the prepulse measured. After a further 100 ms period, the startle stimulus was presented for 40 ms and responses recorded for 100 ms from startle onset. Responses were sampled every ms. The inter-trial interval was variable with an average of 15 s (range from 10 to 20 s). In ‘startle’ trials the basic auditory startle response was measured. The basic startle response was calculated as the mean startle response of all ‘startle’ trials (i.e., excluding the first habituation block). In ‘startle plus prepulse’ trials the degree of inhibition of the normal startle was calculated and expressed as a percentage of the basic startle response.
Mice were treated with vehicle, haloperidol (1 mg/kg; i.p) or test compound 30 min prior to PPI test. The PPI enclosures were cleaned following each test.

[3] = 10 mg/kg Compound + PCP (5 mg/kg; i.p)
[4] = 30 mg/kg Compound + PCP (5 mg/kg; i.p)
[5] = 100 mg/kg Compound + PCP (5 mg/kg; i.p)
[6] = 0.3 mg/kg Compound + PCP (5 mg/kg; i.p)
[7] = 1 mg/kg Compound + PCP (5 mg/kg; i.p)
[8] = 3 mg/kg Compound + PCP (5 mg/kg; i.p)

SMILES | Total Distance Traveled (cm) [1, 3] | Total Distance Traveled (cm) [1, 4] | Total Distance Traveled (cm) [1, 5] | Effect on Pre-pulse Inhibition (PPI) ([2]; 10 mg/kg) | Effect on Pre-pulse Inhibition (PPI) ([2]; 30 mg/kg) | Effect on Pre-pulse Inhibition (PPI) ([2]; 100 mg/kg) | Total Distance Traveled (cm) [1, 6] | Total Distance Traveled (cm) [1, 7] | Total Distance Traveled (cm) [1, 8]
NCC1OCCc2sccc21 (stereo not drawn) [Compound 1] | + | + | − | − | +++ | +++ |  |  | 
NC[C@@H]1OCCc2sccc21 [Compound 2] | + | + | − | − | − | +++ |  |  | 
NC[C@H]1OCCc2sccc21 [Compound 3] | − | − | − | +++ | +++ | − |  |  | 
CNCC1OCCc2sccc21 (stereo not drawn) [Compound 4] | + | + | + | +++ | − | +++ | + | + | +
CNCC1OCCc2sc(C)cc21 (stereo not drawn) [Compound 5] | + | + | + | − | +++ | +++ |  |  | 
CCc1cc2c(s1)CCOC2CNC (stereo not drawn) [Compound 10] | + | + | + | +++ | +++ | +++ |  |  | 
CCNCC1OCCc2sccc21 (stereo not drawn) [Compound 13] |  |  |  | − | − | +++ |  |  | 
CNC[C@@H]1OCCc2sccc21 [Compound 27] | + | + | + | − | − | − | − | − | −
CNC[C@H]1OCCc2sccc21 [Compound 28] | + | + | + | − | +++ | +++ | + | + | +
CNC[C@@H]1OCCc2sc(C)cc21 [Compound 57] | + | + | + | − | − | ++ |  |  | 
CNC[C@H]1OCCc2sc(C)cc21 [Compound 58] | + | + | + | +++ | + | +++ |  |  | 
